Data reported in patent publication US10544460B2, “Homeobox transcription factor ventx regulates differentiation and maturation of human dendritic cells” (priority 2013, dated 2020).

What was measured:
[1] = test system: DCs; assay type: cell-based, human; conditions: after MO transfection; data not shown
Excerpt: (§1) Following a recent finding that VentX is expressed in human primary monocytes, VentX expression was examined during primary monocytes to dendritic cells differentiation induced by GM-CSF and IL-4 treatment. […] To explore potential role of VentX in DC differentiation, the effects of VentX knockdown on in vitro DCs differentiation were examined. […] (Iwamoto, et al. 2007 J Immunol 179(3): p. 1449-57; Gabriele, et al. 2004 Blood 103(3): p. 980-7.) To obtain a long-lasting knockdown effect of VentX in monocytes, a morpholino (MO) mediated VentX knockdown strategy was developed. Two different morpholino antisense oligonucleotides were designed (VentX MO and VentX MO-2) and tested for the knockdown efficiency of VentX. […] Freshly isolated CD14^+CD1a^− monocytes differentiate in vitro into immature CD14^−CD1a^+ DCs when cultured with GM-CSF and IL-4. (Bell, et al. 2001 J Immunol 166(8): p. 4958-67.) Surface expression of CD1a antigen was examined in monocytes transfected with control MO or VentX MO respectively. […] To corroborate the role of VentX in regulating DCs differentiation, VentX was ectopically expressed in primary monocytes and the CD14^−CD1a^+ cells were determined after 3 days of cytokines treatment. Overexpression of VentX in monocytes greatly accelerated the DCs differentiation (FIG. 1E-F).

[2] = test system: human primary monocytes; experiment: Primary monocyte to dendritic cell differentiation induced by GM-CSF and IL4 (flow cytometry of surface antigens); assay type: cell-based
Description: Peripheral blood mononuclear cells (PBMC) from healthy adult donors at Dana-Farber Cancer Institute were isolated by Ficoll density gradient centrifugation. CD14^+ monocytes were purified from PBMCs using anti-CD14 antibody coated magnetic microbeads (Miltenyi Biotec, Auburn, Calif.). Monocytes were cultured in 12-well plates at 1×10^6 cells/ml with RPMI 1640 medium containing 10% fetal bovine serum (FBS), GM-CSF (100 ng/ml) and IL4 (20 ng/ml) (PeproTech, Rocky Hill, N.J.). Cytokines were added to cultures every 2 or 3 days for a total of 5 days to induce dendritic cells differentiation. Neutralizing antibody against IL6 was purchased from R&D Systems (Minneapolis, Minn.) and used at daily dose of 2.5 μg/ml. Intestinal mucosa was obtained from surgically resected specimens from patients diagnosed with inflammatory bowel diseases including Crohn's disease and ulcerative colitis. Specimens were taken from both inflamed and non-inflamed mucosa and were confirmed macroscopically and microscopically. Lamina propria mononuclear cells were isolated using previously described techniques. (Dillon, et al. 2010 J Immunol 184(12): p. 6612-21; Kamada, et al. 2008 J Clin Invest 118(6): p. 2269-80.) LPDCs were purified as the fraction of CD19^−CD1c^+ cells with magnetic microbeads (Miltenyi Biotec). To promote maturation of DCs, 100 ng/ml of E Coli LPS (Sigma-Aldrich) was added to the medium and further cultured for 24 hours. Experiments with human materials were performed in accordance with guidelines approved by the institutional review committee of Brigham and Women's Hospital. […]
Phenotypic analyses of DCs and THP1 cells were performed with flow cytometry after immunostaining of cells with fluorescence dye conjugated antibodies (eBioscience, San Diego, Calif.). […] Stained cells were analyzed with FACScan flow cytometer (BD Bioscience) using FlowJo software. Results are expressed as the percentage of positive cells or mean fluorescence intensity (MFI) values after subtraction of the MFI obtained from the isotype control antibody.

[3] = test system: VentX; experiment: VentX knockdown efficiency in monocytes / monocyte-derived DCs; assay type: cell-based, human; conditions: 5 days after transfection
Excerpt: as §1, with “IL-4.” for “IL-4. (Bell, et al. 2001 J Immunol 166(8): p. 4958-67.) Surface expression of CD1a antigen was examined in monocytes transfected with control MO or VentX MO respectively.”, “Overexpression of VentX in monocytes greatly accelerated the DCs differentiation (FIG. 1E-F).” left out
(§2) Dendritic & Antigen Presenting Cell PCR Array was purchased from SABiosciences (Valencia, Calif.). […] (Wu, et al. 2011 J Clin Invest 121(7): p. 2599-613.) Incorporated BrdU was detected with PE-conjugated anti-BrdU antibody and analyzed with flow cytometry.

[4] = test system: IL6; experiment: Cytokine expression in transfected monocytes (reverse transcription PCR and intracellular staining); assay type: cell-based, human
Description: To elucidate the mechanisms underlying VentX regulated DCs differentiation and maturation, expression level of cytokines known to be important for DCs development was analyzed by reverse transcription PCR and intracellular staining. […] It has been shown that IL6 inhibits DC differentiation and maturation from both CD14^+ monocytes and CD34^+ progenitor cells. […] The effect of VentX on the activity of […] IL6 promoter luciferase reporter and several deletion mutant constructs was assessed. […] To address this question, neutralizing antibody against IL6 was added to the culture medium of VentX MO transfected monocytes and differentiation of DCs was assessed through flow cytometry analysis of CD1a surface expression.
Phenotypic analyses of DCs and THP1 cells were performed with flow cytometry after immunostaining of cells with fluorescence dye conjugated antibodies (eBioscience, San Diego, Calif.). […] Stained cells were analyzed with FACScan flow cytometer (BD Bioscience) using FlowJo software. Results are expressed as the percentage of positive cells or mean fluorescence intensity (MFI) values after subtraction of the MFI obtained from the isotype control antibody. […]

[5] = test system: LPDCs; experiment: Pro-inflammatory cytokine mRNA in DCs treated with prednisolone and LPS; assay type: cell-based, human; conditions: prednisolone, LPS added 24 hours later, harvested at 48 hours, FIG. 6G
Description: (§3) FIG. 6: VentX is required for the maturation of lamina propria DCs. (A) LPDCs were isolated from inflamed and non-inflamed intestinal mucosa of five IBD patients. VentX level was determined with real time PCR. (B) LPDCs were transfected with siRNA targeting VentX or control GFP through electroporation followed by culturing in medium for two days. Then cells were stimulated with LPS for overnight to induce maturation and harvested for flow cytometry analysis of surface markers and intracellular cytokines/chemokines. Filled histograms indicate siGFP transfection. […] Results are expressed as the percentage of MFI normalized to control. […] (D) LPDCs transfected with siGFP or siVentX were analyzed for the mRNA expression levels of indicated genes. […] (F) DCs were treated with prednisolone (10 μg/ml) for 48 hours or mock treated, and VentX level was determined with real time PCR. […]
(§4) Aberrant activation of DCs has been implicated in mucosal inflammation in pathogenesis of inflammatory bowl diseases. […] VetnX expression levels in these DCs were determined by RT-PCR methods. […]
as §2

[6] = test system: VentX; experiment: VentX expression in LPDCs treated with prednisolone (real time PCR); assay type: cell-based, human; conditions: prednisolone 10 μg/ml, 48 hours, vs mock treated; FIG. 6F
Description: as §3, §4, §2

| Compound | cell death in DCs [1] | expression of CD16, CD36, CD64, mannose receptor (MR) and TLR4 ([2]; MO transfected DCs) | percentage of CD14-CD1a+ cells ([2]; monocytes + GM-CSF and IL4, 5 days, in comparison with control MO, FIG. 1A-B) | surface expression of CD1b, CD1c and CD11c ([2]; monocytes + GM-CSF and IL4, 5 days, vs control MO) | VentX expression in DCs compared with control sequence [3] | IL1β, TNFα and IL10 expression ([4]; MO transfected cells, data not shown) | IL6 expression ([4]; monocytes + GM-CSF and IL4, 5 days, mRNA and intracellular level, FIGS. 3A and C) | expression of pro-inflammatory cytokines, such as the IL2, TNF, CCL5 [5] | VentX expression in LPDCs [6] |
| --- | --- | --- | --- | --- | --- | --- | --- | --- | --- |
| 5′-TACTCAACCCTGACATAGAGGGTAA-3′ (morpholino, further chemistry not given here) [VentX MO, Morpholino antisense oligonucleotide targeting VentX] | did not cause excess cell death | remained unchanged | substantial reduction | similarly downregulated | inhibited VentX expression | no apparent changes | consistently increased |  |  |
| C[C@]12C=CC(=O)C=C1CC[C@@H]1[C@@H]2[C@@H](O)C[C@@]2(C)[C@H]1CC[C@]2(O)C(=O)CO [prednisolone] |  |  |  |  |  |  |  | dramatically decreased | dramatically decreased |
| 5′-GAGCCCGGTTTGCATACACGGCTAA-3′ (morpholino, further chemistry not given here) [VentX MO-2, Morpholino antisense oligonucleotide targeting VentX] |  |  |  |  | inhibited VentX expression |  |  |  |  |
